Experimental data published in patent US10131652B2, “Pyrimidinyloxy benzene derivatives as herbicides” (E. I. DU PONT DE NEMOURS AND COMPANY, priority 2014, dated 2018).

What was measured:
Format in all cases: in vivo
[1] = system: Italian ryegrass (Lolium multiflorum); experiment: Test B pre-/postemergence plant response
Procedure, shortened: (§1)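 Visual injury rating, 0 (no effect) to 100 (complete control), vs untreated controls after ~10 d greenhouse. Pre: directed soil spray after planting in loam/sand. Post: plants 2–10 cm, 1–2 leaf stage. Compound in non-phytotoxic solvent plus surfactant.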

[2] = system: barnyardgrass (Echinochloa crus-galli); experiment: Test B pre-/postemergence plant response
Procedure, shortened: as §1

corn (Zea mays) = experiment: Test B pre-/postemergence plant response
Procedure, shortened: as §1

[3] = system: giant foxtail (Setaria faberii); experiment: Test B pre-/postemergence plant response
Procedure, shortened: as §1

kochia (Kochia scoparia) = experiment: Test B pre-/postemergence plant response
Procedure, shortened: as §1

[4] = system: pigweed (Amaranthus retroflexus); experiment: Test B pre-/postemergence plant response
Procedure, shortened: as §1

[5] = system: ragweed (common ragweed, Ambrosia elatior); experiment: Test B pre-/postemergence plant response
Procedure, shortened: as §1

[6] = system: wheat (Triticum aestivum); experiment: Test B pre-/postemergence plant response
Procedure, shortened: as §1

[7] = system: blackgrass (Alopecurus myosuroides); experiment: Test B postemergence plant response
Procedure, shortened: (§2)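 Plants grown in pots of loam soil–sand blend were sprayed postemergence with formulated test chemicals at 2 to 10 cm height, one- to two-leaf stage. After about 10 days in a greenhouse, injury was visually rated against untreated controls on a 0 to 100 scale (0 no effect, 100 complete control).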

[8] = system: galium (catchweed bedstraw, Galium aparine); experiment: Test B postemergence plant response
Procedure, shortened: as §2

[9] = system: barnyardgrass (Echinochloa crus-galli); experiment: Test C flooded paddy test plant response; conditions: Flood, 250 g ai/ha; scale of 0 to 100 where 0 is no effect and 100 is complete control; 13 to 15 days
Procedure, shortened: (§3)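 Visual injury ratings (0, no effect; 100, complete control) were assigned after 13 to 15 days in a greenhouse, comparing treated plants with controls. Compounds had been added straight into paddy water over 2-leaf-stage plants flooded to 3 cm.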

[10] = system: ducksalad (Heteranthera limosa); experiment: Test C flooded paddy test plant response; conditions: Flood, 250 g ai/ha; scale of 0 to 100 where 0 is no effect and 100 is complete control; 13 to 15 days
Procedure, shortened: as §3

rice (Oryza sativa) = experiment: Test C flooded paddy test plant response; conditions: Flood, 250 g ai/ha; scale of 0 to 100 where 0 is no effect and 100 is complete control; 13 to 15 days
Procedure, shortened: as §3

[11] = system: small-flower umbrella sedge (Cyperus difformis); experiment: Test C flooded paddy test plant response; conditions: Flood, 250 g ai/ha; scale of 0 to 100 where 0 is no effect and 100 is complete control; 13 to 15 days
Procedure, shortened: as §3

[12] = 31 g ai/ha, Preemergence, 0 to 100 scale where 0 is no effect and 100 is complete control
[13] = 125 g ai/ha, postemergence, 0 to 100 scale, 0 no effect, 100 complete control
[14] = Preemergence, 125 g ai/ha, 0 to 100 scale (0 no effect, 100 complete control)
[15] = 31 g ai/ha, Postemergence, 0 to 100 scale, 0 no effect, 100 complete control
[16] = Preemergence, 31 g ai/ha, 0 to 100 scale (0 no effect, 100 complete control)
[17] = Preemergence, 125 g ai/ha, 0 to 100 scale where 0 is no effect and 100 is complete control
[18] = Postemergence, 500 g ai/ha, 0 to 100 scale (0 no effect, 100 complete control)
[19] = Preemergence, 500 g ai/ha, 0 to 100 scale where 0 is no effect and 100 is complete control

SMILES	Plant response rating, Ryegrass, Italian [1, 13]	Plant response rating, Barnyardgrass [2, 13]	Plant response rating, Corn (corn (Zea mays); [13])	Plant response rating, Foxtail, Giant [3, 13]	Plant response rating, Kochia (kochia (Kochia scoparia); [13])	Plant response rating, Pigweed [4, 13]	Plant response rating, Ragweed [5, 13]	Plant response rating, Wheat [6, 13]	Plant response rating, Blackgrass [7, 13]	Plant response rating, Galium [8, 13]	Barnyardgrass plant response rating [9]	Ducksalad plant response rating [10]	Rice plant response rating (rice (Oryza sativa))	Sedge, Umbrella plant response rating [11]	Plant response rating, Ryegrass, Italian [1, 17]	Plant response rating, Barnyardgrass [2, 17]	Plant response rating, Foxtail, Giant [3, 17]	Plant response rating, Kochia (kochia (Kochia scoparia); [17])	Plant response rating, Pigweed [4, 17]	Plant response rating, Ragweed [5, 17]	also measured
FC(F)(F)C(F)(F)c1cc(-c2ccccc2Oc2ncc(Cl)cn2)no1 [Compound 142]	0	0	20	0	20	20	0	0	0	10	0	0	0	0	–	–	–	–	–	–	Plant response rating, Ryegrass, Italian [1, 12]: 0; Ryegrass, Italian plant response rating [1, 14]: 0; Plant response rating, Barnyardgrass [2, 15]: 0; Plant response rating, Barnyardgrass [2, 12]: 0; Barnyardgrass plant response rating [2, 14]: 0; Plant response rating, Corn (corn (Zea mays); [15]): 0; Plant response rating, Foxtail, Giant [3, 15]: 0; Plant response rating, Foxtail, Giant [3, 12]: 0; Foxtail, Giant plant response rating [3, 14]: 20; Plant response rating, Kochia (kochia (Kochia scoparia); [12]): 0; Kochia plant response rating (kochia (Kochia scoparia); [14]): 0; Plant response rating, Pigweed [4, 12]: 0; Pigweed plant response rating [4, 14]: 0; Plant response rating, Ragweed [5, 12]: 0; Ragweed plant response rating [5, 14]: 0; Plant response rating, Blackgrass [7, 15]: 0
CC(C)n1nc(C(F)(F)F)cc1-c1c(C#N)cccc1Oc1ncc(Cl)cn1 [Compound 90]	0	0	0	0	10	10	0	0	0	30	0	0	0	0	0	0	0	0	20	0	Plant response rating, Ryegrass, Italian [1, 15]: 0; Ryegrass, Italian plant response rating [1, 16]: 0; Plant response rating, Barnyardgrass [2, 15]: 0; Barnyardgrass plant response rating [2, 16]: 0; Plant response rating, Corn (corn (Zea mays); [15]): 0; Plant response rating, Foxtail, Giant [3, 15]: 0; Foxtail, Giant plant response rating [3, 16]: 0; Plant response rating, Kochia (kochia (Kochia scoparia); [15]): 0; Kochia plant response rating (kochia (Kochia scoparia); [16]): 0; Plant response rating, Pigweed [4, 15]: 0; Pigweed plant response rating [4, 16]: 0; Plant response rating, Ragweed [5, 15]: 0; Ragweed plant response rating [5, 16]: 0; Plant response rating, Wheat [6, 15]: 0; Plant response rating, Blackgrass [7, 15]: 0; Plant response rating, Galium [8, 15]: 0
Cn1nnnc1-c1ccccc1Oc1ncc(Br)cn1 [Compound 49]	0	0	0	0	30	10	30	10	0	20	0	0	0	0	0	0	0	0	20	0	Plant response rating, Ryegrass, Italian [1, 18]: 0; Plant response rating, Ryegrass, Italian [1, 19]: 0; Plant response rating, Barnyardgrass [2, 18]: 10; Plant response rating, Barnyardgrass [2, 19]: 0; Plant response rating, Corn (corn (Zea mays); [18]): 10; Plant response rating, Foxtail, Giant [3, 18]: 10; Plant response rating, Foxtail, Giant [3, 19]: 20; Plant response rating, Kochia (kochia (Kochia scoparia); [18]): 30; Plant response rating, Kochia (kochia (Kochia scoparia); [19]): 70; Plant response rating, Pigweed [4, 18]: 30; Plant response rating, Pigweed [4, 19]: 30; Plant response rating, Ragweed [5, 18]: 30; Plant response rating, Ragweed [5, 19]: 0; Plant response rating, Wheat [6, 18]: 20; Plant response rating, Blackgrass [7, 18]: 10; Plant response rating, Galium [8, 18]: 60
Cn1cc(-c2ccccc2Oc2ncc(Cl)cn2)nn1 [Compound 51]	0	0	0	10	70	70	20	0	0	60	0	30	0	0	0	0	10	10	50	50	Plant response rating, Ryegrass, Italian [1, 18]: 0; Plant response rating, Ryegrass, Italian [1, 19]: 0; Plant response rating, Barnyardgrass [2, 18]: 0; Plant response rating, Barnyardgrass [2, 19]: 10; Plant response rating, Corn (corn (Zea mays); [18]): 0; Plant response rating, Foxtail, Giant [3, 18]: 50; Plant response rating, Foxtail, Giant [3, 19]: 60; Plant response rating, Kochia (kochia (Kochia scoparia); [18]): 100; Plant response rating, Kochia (kochia (Kochia scoparia); [19]): 70; Plant response rating, Pigweed [4, 18]: 80; Plant response rating, Pigweed [4, 19]: 100; Plant response rating, Ragweed [5, 18]: 60; Plant response rating, Ragweed [5, 19]: 50; Plant response rating, Wheat [6, 18]: 10; Plant response rating, Blackgrass [7, 18]: 50; Plant response rating, Galium [8, 18]: 90
